# Measured values as given in US12232493B2, “Biopesticide formulation and treatment method thereof” (Xinjiang Institute of Ecology and Geography, Chinese …, priority 2023, dated 2025).
# Read-outs that look alike come from different tables or passages of the source.
# What was measured:
# pakchoi [1] = test: Pot experiment under drought treatment, terrein seed soaking or spraying, pakchoi; format: in vivo
# Method: (§1) An embodiment of effects of 2 μg/mL terrein formulation on the growth of four crops by seed soaking treatment under drought conditions is as follows. Terrein (purity 95%) is prepared as a solution with a concentration of 2 μg/mL in distilled water, and pakchoi, mung bean, sorghum, and wheat seeds are soaked in it for 6 hours, and the seeds are also soaked in distilled water as a blank control. Subsequently, the soaked crop seeds are sown into potted plants, and each of the treatment group is replicated five times. When the seedlings grew to about 10 cm, the drought treatment culture is carried out. The room temperature is 25° C., the humidity is 70%, 12 hours of light and 12 hours of darkness each day, and the light intensity is 80-100 μmol·m^−2·s^−1. During the period, the soil was kept in a dry state, and 200 mL is watered every week for 30 days, with a total of 800 mL. The drought culture conditions described below are all treated in the same way. After 30 days, the root length, seedling height, and fresh weight of pakchoi, mung bean, sorghum, and wheat are measured, and 10 seedlings are selected from each of the treatment groups, with a total of 50 plants (N=50), hereafter, they are dried in an oven and then measured dry weight. The growth rates of root length, seedling height, fresh weight, and dry weight of pakchoi, mung bean, sorghum, and wheat under 2 μg/mL compared to the blank control are first calculated, that is, An embodiment of effects of 10 μg/mL terrein formulation on the growth of four crops by seed soaking treatment under drought conditions is as follows. Terrein is prepared as a solution with a concentration of 10 μg/mL in distilled water, and pakchoi, mung bean, sorghum, and wheat seeds are soaked in it for 6 hours, and the seeds are also soaked in distilled water as a blank control. Subsequently, the soaked crop seeds are sown into potted plants. When the seedlings grew to about 10 cm, the drought treatment culture is carried out. After 30 days, the root length, seedling height, and fresh weight of pakchoi, mung bean, sorghum, and wheat are measured, hereafter, they are dried in an oven and then measured dry weight. An embodiment of effects of 2 μg/mL terrein formulation on the growth of four crops by spraying treatment under drought conditions is as follows. Seeds of four tested plants are soaked in distilled water and then sowing. Terrein is prepared as a solution with a concentration of 2 μg/mL in distilled water. When the potted pakchoi, mung bean, sorghum, and wheat grow to about 10 cm (15-20 days after sowing), spray them once, with an amount of about 3 mL, and distilled water sprayed used as blank control. Subsequently, the drought treatment culture is carried out. The room temperature is 25° C., the humidity is 70%, 12 hours of light and 12 hours of darkness each day, and the light intensity is 80-100 μmol·m^−2·s^−1. During the period, the soil was kept in a dry state, and 200 mL is watered every week for 30 days, with a total of 800 mL. After 30 days, the root length, seedling height, and fresh weight of pakchoi, mung bean, sorghum, and wheat are measured, hereafter, they are dried in an oven and then measured dry weight. An embodiment of effects of 10 μg/mL terrein formulation on the growth of four crops by spraying treatment under drought conditions is as follows. Seeds of four tested plants are soaked in distilled water and then sowing. Terrein is prepared as a solution with a concentration of 10 μg/mL in distilled water. When the potted pakchoi, mung bean, sorghum, and wheat grow to about 10 cm (15-20 days after sowing), spray them once, with an amount of about 3 mL, and distilled water sprayed used as blank control. Subsequently, the drought treatment is carried out. After 30 days, the root length, seedling height, and fresh weight of pakchoi, mung bean, sorghum, and wheat are measured, hereafter, they are dried in an oven and then measured dry weight. […]
# mung bean = test: Pot experiment under drought treatment, terrein seed soaking or spraying, mung bean; format: in vivo
# Method: as §1
# wheat = test: Pot experiment under drought treatment, terrein seed soaking or spraying, wheat; format: in vivo
# Method: as §1
# pakchoi [2] = test: Indoor petri dish bioassay, pakchoi under drought treatment conditions; format: in vivo; conditions: for inhibition at 250 µg/mL: terrein 250 μg/mL
# Method: The present invention has done corresponding indoor petri dish bioassay experiments before, with pakchoi under drought treatment conditions as the recipient plant, terrein as the donor, and the concentration of terrein is set to 0, 2, 10, 50 and 250 μg/mL. […] Therefore, the present invention only selects low concentrations (2 μg/mL, 10 μg/mL) for experiments to confirm the effect of terrein on drought resistance and growth promotion of crops in outdoor pot experiments.
# sorghum = test: Pot experiment under drought treatment, terrein seed soaking or spraying, sorghum; format: in vivo
# Method: as §1
# Solubility in water = format: physicochemical
# [3] = 2 μg/mL terrein seed soaking treatment, drought, 30 days
# [4] = 2 μg/mL terrein seed soaking, drought, 30 days
# [5] = 2 μg/mL terrein seed soaking, drought, 30 days, p<0.05
# [6] = 2 μg/mL terrein spraying at seedling stage
# [7] = 2 μg/mL terrein spraying treatment, drought, 30 days
# [8] = 2 μg/mL terrein spraying, drought, 30 days
# [9] = 10 μg/mL terrein seed soaking treatment, drought, 30 days
# [10] = 10 μg/mL terrein seed soaking, drought
# [11] = 10 μg/mL terrein seed soaking, drought, 30 days
# [12] = 10 μg/mL terrein spraying treatment, drought, 30 days
# [13] = 10 μg/mL terrein spraying, drought
# [14] = 10 μg/mL terrein spraying, drought, 30 days
compound,measurement,setting,value
C/C=C/C1=CC(=O)[C@H](O)[C@H]1O [terrein],effect on growth,pakchoi [1]; 2 μg/mL terrein seed soaking,significantly promote
same,dry weight,pakchoi [1]; [3],0.16 g
same,fresh weight,pakchoi [1]; [3],1.91 g
same,root length,pakchoi [1]; [3],15.46 cm
same,seedling height,pakchoi [1]; [3],11.45 cm
same,growth rate of dry weight compared with the blank control,pakchoi [1]; [4],32.47%
same,growth rate of root length compared with the blank control,pakchoi [1]; [4],76.63%
same,effect on fresh weight compared with the blank control,pakchoi [1]; [5],not significant
same,effect on seedling height compared with the blank control,pakchoi [1]; [5],not significant
same,effect on growth,pakchoi [1]; [6],significant promoting effect
same,dry weight,pakchoi [1]; [7],0.13 g
same,fresh weight,pakchoi [1]; [7],1.75 g
same,root length,pakchoi [1]; [7],11.59 cm
same,seedling height,pakchoi [1]; [7],11.40 cm
same,growth rate of root length compared with the blank control,pakchoi [1]; [8],32.48%
same,dry weight,pakchoi [1]; [9],0.18 g
same,fresh weight,pakchoi [1]; [9],2.45 g
same,root length,pakchoi [1]; [9],17.43 cm
same,seedling height,pakchoi [1]; [9],12.21 cm
same,effect on growth,pakchoi [1]; [10],significant promoting effect
same,growth rate (promotion rate) of dry weight compared with the blank control,pakchoi [1]; [11],49.12%
same,growth rate (promotion rate) of fresh weight compared with the blank control,pakchoi [1]; [11],40.34%
same,growth rate (promotion rate) of root length compared with the blank control,pakchoi [1]; [11],99.19%
same,growth rate (promotion rate) of seedling height compared with the blank control,pakchoi [1]; [11],15.66%
same,dry weight,pakchoi [1]; [12],0.14 g
same,fresh weight,pakchoi [1]; [12],1.85 g
same,root length,pakchoi [1]; [12],10.19 cm
same,seedling height,pakchoi [1]; [12],10.73 cm
same,effect on growth,pakchoi [1]; [13],significant promoting effects
same,growth rate of root length compared with the blank control,pakchoi [1]; [14],16.45%
same,effect on growth,mung bean; 2 μg/mL terrein seed soaking,significantly promote
same,dry weight,mung bean; [3],0.15 g
same,fresh weight,mung bean; [3],0.98 g
same,root length,mung bean; [3],14.19 cm
same,seedling height,mung bean; [3],22.54 cm
same,growth rate of dry weight compared with the blank control,mung bean; [4],28.07%
same,growth rate of root length compared with the blank control,mung bean; [4],44.72%
same,effect on fresh weight compared with the blank control,mung bean; [5],not significant
same,effect on seedling height compared with the blank control,mung bean; [5],not significant
same,effect on growth,mung bean; [6],significant promoting effect
same,dry weight,mung bean; [7],0.14 g
same,fresh weight,mung bean; [7],0.92 g
same,root length,mung bean; [7],15.88 cm
same,seedling height,mung bean; [7],23.99 cm
same,growth rate of root length compared with the blank control,mung bean; [8],61.95%
same,dry weight,mung bean; [9],0.16 g
same,fresh weight,mung bean; [9],0.87 g
same,root length,mung bean; [9],12.84 cm
same,seedling height,mung bean; [9],24.21 cm
same,effect on growth,mung bean; [10],significant promoting effect
same,growth rate of dry weight compared with the blank control,mung bean; [11],35.65%
same,growth rate of root length compared with the blank control,mung bean; [11],30.92%
same,dry weight,mung bean; [12],0.15 g
same,fresh weight,mung bean; [12],1.16 g
same,root length,mung bean; [12],15.42 cm
same,seedling height,mung bean; [12],22.08 cm
same,effect on growth,mung bean; [13],significant promoting effects
same,growth rate (promotion rate) of dry weight compared with the blank control,mung bean; [14],26.98%
same,growth rate (promotion rate) of fresh weight compared with the blank control,mung bean; [14],56.18%
same,growth rate (promotion rate) of root length compared with the blank control,mung bean; [14],57.20%
same,effect on growth,wheat; 2 μg/mL terrein seed soaking,significantly promote
same,dry weight,wheat; [3],0.26 g
same,fresh weight,wheat; [3],1.10 g
same,root length,wheat; [3],16.13 cm
same,seedling height,wheat; [3],21.55 cm
same,promotion rate of dry weight compared with the blank control,wheat; [4],21.99%
same,promotion rate of fresh weight compared with the blank control,wheat; [4],52.30%
same,effect on growth,wheat; [6],significant promoting effect
same,dry weight,wheat; [7],0.25 g
same,fresh weight,wheat; [7],1.16 g
same,root length,wheat; [7],17.02 cm
same,seedling height,wheat; [7],18.93 cm
same,growth rate of dry weight compared with the blank control,wheat; [8],16.29%
same,growth rate of fresh weight compared with the blank control,wheat; [8],60.98%
same,dry weight,wheat; [9],0.26 g
same,fresh weight,wheat; [9],1.27 g
same,root length,wheat; [9],18.96 cm
same,seedling height,wheat; [9],20.25 cm
same,effect on growth,wheat; [10],significant promoting effect
same,growth rate of dry weight compared with the blank control,wheat; [11],22.35%
same,growth rate of fresh weight compared with the blank control,wheat; [11],76.39%
same,growth rate of root length compared with the blank control,wheat; [11],25.09%
same,dry weight,wheat; [12],0.29 g
same,fresh weight,wheat; [12],1.42 g
same,root length,wheat; [12],25.37 cm
same,seedling height,wheat; [12],20.49 cm
same,effect on growth,wheat; [13],significant promoting effects
same,growth rate (promotion rate) of dry weight compared with the blank control,wheat; [14],34.79%
same,growth rate (promotion rate) of fresh weight compared with the blank control,wheat; [14],97.21%
same,growth rate (promotion rate) of root length compared with the blank control,wheat; [14],67.40%
same,promotion rate of pakchoi root length,pakchoi [2]; terrein 2 μg/mL,13.51%
same,promotion rate of pakchoi seedling height,pakchoi [2]; terrein 2 μg/mL,21.70%
same,promotion rate of pakchoi root length,pakchoi [2]; terrein 10 μg/mL,18.82%
same,promotion rate of pakchoi seedling height,pakchoi [2]; terrein 10 μg/mL,23.26%
same,effect on seedling height,pakchoi [2]; terrein 50 μg/mL,not significant
same,inhibition at 50 µg/mL,"pakchoi [2]; terrein 50 μg/mL, read-out: inhibition rate of pakchoi root length",16%
same,inhibition at 250 µg/mL,pakchoi [2]; read-out: inhibition rate of pakchoi root length,86.8%
same,inhibition at 250 µg/mL,pakchoi [2]; read-out: inhibition rate of pakchoi seedling height,5.71%
same,dry weight,sorghum; [3],0.37 g
same,fresh weight,sorghum; [3],1.71 g
same,root length,sorghum; [3],35.67 cm
same,seedling height,sorghum; [3],40.43 cm
same,effect on growth,sorghum; [4],no significant effect
same,effect on growth,sorghum; [6],significant promoting effect
same,dry weight,sorghum; [7],0.40 g
same,fresh weight,sorghum; [7],1.92 g
same,root length,sorghum; [7],38.15 cm
same,seedling height,sorghum; [7],39.14 cm
same,growth rate of dry weight compared with the blank control,sorghum; [8],20.80%
same,growth rate of fresh weight compared with the blank control,sorghum; [8],18.92%
same,growth rate of root length compared with the blank control,sorghum; [8],18.49%
same,dry weight,sorghum; [9],0.38 g
same,fresh weight,sorghum; [9],1.88 g
same,root length,sorghum; [9],33.99 cm
same,seedling height,sorghum; [9],39.69 cm
same,effect on growth,sorghum; [10],significant promoting effect
same,growth rate of dry weight compared with the blank control,sorghum; [11],15.42%
same,dry weight,sorghum; [12],0.42 g
same,fresh weight,sorghum; [12],1.93 g
same,root length,sorghum; [12],42.01 cm
same,seedling height,sorghum; [12],38.16 cm
same,effect on growth,sorghum; [13],significant promoting effects
same,growth rate (promotion rate) of dry weight compared with the blank control,sorghum; [14],25.19%
same,growth rate (promotion rate) of fresh weight compared with the blank control,sorghum; [14],19.90%
same,growth rate (promotion rate) of root length compared with the blank control,sorghum; [14],30.50%
same,solubility in water,Solubility in water,easily soluble in water
